Source: PubChem BioAssay AID1918947 (Molecular Pharmacology Branch, DTP, NCI, 2023)
“And” between values parts separate entries of the source, which are not always exact repeats. Identical values can stand only once. Values belong to the compound of their own block, whether it stands above or below them.

System: A498 complex spheroid viability
Assay: Anticancer human tumor A498 cell line growth inhibition;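 further: spheroids exposed to agents for seven days before readout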;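 on viability, T/C: 100% = DMSO vehicle-treated spheroids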
Conditions: for viability, T/C: stronger effect = lower value
How it was run: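 Complex spheroids of tumor cells with HUVEC and human MSCs, exposed to iadademstat combined with other agents. Each agent tested in half-log steps from near clinical Cmax (else 10 microM top), DMSO ≤0.25%.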

[1] = curve of first compound, second compound 0.1 µM
[2] = curve of first compound, second compound 0.316 µM
[3] = curve of first compound, second compound 1 µM
[4] = curve of first compound, second compound 3.16 µM
[5] = curve of first compound, second compound 10 µM

Structure (SMILES): CC(C)CC(NC(=O)CNC(=O)c1cc(Cl)ccc1Cl)B1OC(=O)CC(CC(=O)O)(C(=O)O)O1 (stereo unspecified) + NC1CC1c1ccc(-c2cccc(O)c2)cc1
IC50 [1]: 4.26 nM
IC50 [2]: 4.8 nM
IC50 [3]: 4.44 nM
IC50 [4]: 4.29 nM
IC50 [5]: 3.46 nM
viability, T/C (second compound 0.1 µM, first compound 0.000316 µM): 93.7%
viability, T/C (second compound 0.1 µM, first compound 0.001 µM): 96.5%
viability, T/C (second compound 0.1 µM, first compound 0.00316 µM): 60%
viability, T/C (second compound 0.1 µM, first compound 0.01 µM): 18.1%
viability, T/C (second compound 0.1 µM, first compound 0.0316 µM): 5.77%
viability, T/C (second compound 0.1 µM, first compound 0.1 µM): 2.14%
viability, T/C (second compound 0.316 µM, first compound 0.000316 µM): 106%
viability, T/C (second compound 0.316 µM, first compound 0.001 µM): 114%
viability, T/C (second compound 0.316 µM, first compound 0.00316 µM): 68.1%
viability, T/C (second compound 0.316 µM, first compound 0.01 µM): 17.3%
viability, T/C (second compound 0.316 µM, first compound 0.0316 µM): 5.27%
viability, T/C (second compound 0.316 µM, first compound 0.1 µM): 1.97%
viability, T/C (second compound 1 µM, first compound 0.000316 µM): 96.6%
viability, T/C (second compound 1 µM, first compound 0.001 µM): 102%
viability, T/C (second compound 1 µM, first compound 0.00316 µM): 62.9%
viability, T/C (second compound 1 µM, first compound 0.01 µM): 16.8%
viability, T/C (second compound 1 µM, first compound 0.0316 µM): 3.81%
viability, T/C (second compound 1 µM, first compound 0.1 µM): 1.83%
viability, T/C (second compound 3.16 µM, first compound 0.000316 µM): 91.8%
viability, T/C (second compound 3.16 µM, first compound 0.001 µM): 94.4%
viability, T/C (second compound 3.16 µM, first compound 0.00316 µM): 61%
viability, T/C (second compound 3.16 µM, first compound 0.01 µM): 16.9%
viability, T/C (second compound 3.16 µM, first compound 0.0316 µM): 3.71%
viability, T/C (second compound 3.16 µM, first compound 0.1 µM): 1.96%
viability, T/C (second compound 10 µM, first compound 0.000316 µM): 98.4%
viability, T/C (second compound 10 µM, first compound 0.001 µM): 92.1%
viability, T/C (second compound 10 µM, first compound 0.00316 µM): 51.7%
viability, T/C (second compound 10 µM, first compound 0.01 µM): 15.6%
viability, T/C (second compound 10 µM, first compound 0.0316 µM): 2.82%
viability, T/C (second compound 10 µM, first compound 0.1 µM): 1.07%

Structure (SMILES): Nc1ncn(C2CC(O)C(CO)S2)c(=O)n1 (stereo unspecified) + NC1CCC(NC2CC2c2ccccc2)CC1
IC50 [1]: 154 nM
IC50 [2]: 146 nM
IC50 [3]: 113 nM
IC50 [4]: 74 nM
IC50 [5]: 48.4 nM
viability, T/C (second compound 0.1 µM, first compound 0.000949 µM): 101%
viability, T/C (second compound 0.1 µM, first compound 0.003 µM): 92.5%
viability, T/C (second compound 0.1 µM, first compound 0.00949 µM): 88.6%
viability, T/C (second compound 0.1 µM, first compound 0.03 µM): 87.5%
viability, T/C (second compound 0.1 µM, first compound 0.0949 µM): 62.1%
viability, T/C (second compound 0.1 µM, first compound 0.3 µM): 31.5%
viability, T/C (second compound 0.316 µM, first compound 0.000949 µM): 95.1%
viability, T/C (second compound 0.316 µM, first compound 0.003 µM): 98.7%
viability, T/C (second compound 0.316 µM, first compound 0.00949 µM): 98%
viability, T/C (second compound 0.316 µM, first compound 0.03 µM): 95.2%
viability, T/C (second compound 0.316 µM, first compound 0.0949 µM): 58.4%
viability, T/C (second compound 0.316 µM, first compound 0.3 µM): 36%
viability, T/C (second compound 1 µM, first compound 0.000949 µM): 90.4%
viability, T/C (second compound 1 µM, first compound 0.003 µM): 94.9%
viability, T/C (second compound 1 µM, first compound 0.00949 µM): 91.6%
viability, T/C (second compound 1 µM, first compound 0.03 µM): 81.7%
viability, T/C (second compound 1 µM, first compound 0.0949 µM): 54.4%
viability, T/C (second compound 1 µM, first compound 0.3 µM): 26.2%
viability, T/C (second compound 3.16 µM, first compound 0.000949 µM): 85.1%
viability, T/C (second compound 3.16 µM, first compound 0.003 µM): 83.5%
viability, T/C (second compound 3.16 µM, first compound 0.00949 µM): 90.6%
viability, T/C (second compound 3.16 µM, first compound 0.03 µM): 75.8%
viability, T/C (second compound 3.16 µM, first compound 0.0949 µM): 43%
viability, T/C (second compound 3.16 µM, first compound 0.3 µM): 23.7%
viability, T/C (second compound 10 µM, first compound 0.000949 µM): 74.5%
viability, T/C (second compound 10 µM, first compound 0.003 µM): 81.7%
viability, T/C (second compound 10 µM, first compound 0.00949 µM): 76.1%
viability, T/C (second compound 10 µM, first compound 0.03 µM): 67.2%
viability, T/C (second compound 10 µM, first compound 0.0949 µM): 25.9%
viability, T/C (second compound 10 µM, first compound 0.3 µM): 14.3%

IC50 (curve of compound): > 3000 nM and 2640 nM
Structure (SMILES): COc1cc(C2c3cc4c(cc3C(OC3OC5COC(C)OC5C(O)C3O)C3COC(=O)C23)OCO4)cc(OC)c1O (stereo unspecified)
viability, T/C (compound 0.00949 µM): 89.7% and 87%
viability, T/C (compound 0.03 µM): 92.9% and 75.5%
viability, T/C (compound 0.0949 µM): 82.8% and 70.3%
viability, T/C (compound 0.3 µM): 78.1% and 74.6%
viability, T/C (compound 0.949 µM): 68.8% and 57%
viability, T/C (compound 3 µM): 56.8% and 48.7%

IC50 (curve of compound): 342 nM and 416 nM
Structure (SMILES): Nc1ccccc1NC(=O)c1ccc(CNC(=O)OCc2cccnc2)cc1
viability, T/C (compound 0.00949 µM): 91.2% and 95%
viability, T/C (compound 0.03 µM): 84.3% and 96.3%
viability, T/C (compound 0.0949 µM): 81.4% and 80.8%
viability, T/C (compound 0.3 µM): 53.1% and 62%
viability, T/C (compound 0.949 µM): 19.8% and 24.2%
viability, T/C (compound 3 µM): 1.79% and 6.46%

IC50 (curve of compound): 4720 nM and 4390 nM
Structure (SMILES): CC1(C)CCC(CN2CCN(c3ccc(C(=O)NS(=O)(=O)c4ccc(NCC5CCOCC5)c([N+](=O)[O-])c4)c(Oc4cnc5[nH]ccc5c4)c3)CC2)=C(c2ccc(Cl)cc2)C1
viability, T/C (compound 0.0316 µM): 103% and 98.6%
viability, T/C (compound 0.1 µM): 107% and 105%
viability, T/C (compound 0.316 µM): 97.5% and 95.6%
viability, T/C (compound 1 µM): 93% and 88.7%
viability, T/C (compound 3.16 µM): 74.2% and 67.7%
viability, T/C (compound 10 µM): 6.84% and 8.34%
